Data taken from ChEMBL document CHEMBL1201862, “PubChem BioAssay data set” (2004).
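Assay format: 96-well plates, 48-hour exposure. Here, GI50 denotes the concentration required for 50% inhibition of growth.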 Active and inactive are the calls of the source. No stated cut-off is given here; in the data, active = GI50 up to about 1.1 µM and inactive = higher.

How the values were obtained:
Assay in all cases: DTP human tumour cell line panel, 48 h
ACHN = system: ACHN
CCRF-CEM = system: CCRF-CEM
EKVX = system: EKVX
HCT-15 = system: HCT-15
HOP-62 = system: HOP-62
HOP-92 = system: HOP-92
HT-29 = system: HT-29
IGROV-1 = system: IGROV-1
KM12 = system: KM12
M14 = system: M14
MDA-MB-435 = system: MDA-MB-435
MDA-N = system: MDA-N
NCI-H460 = system: NCI-H460
NCI-H522 = system: NCI-H522
OVCAR-3 = system: OVCAR-3
OVCAR-5 = system: OVCAR-5
SF-268 = system: SF-268
SK-MEL-2 = system: SK-MEL-2
SF-539 = system: SF-539

Row | SMILES | GI50 (ACHN) | GI50 (CCRF-CEM) | GI50 (EKVX) | GI50 (HCT-15) [µM] | GI50 (HOP-62) | GI50 (HOP-92) | GI50 (HT-29) | GI50 (IGROV-1) | GI50 (KM12) | GI50 (M14) | GI50 (MDA-MB-435) | GI50 (MDA-N) | GI50 (NCI-H460) | GI50 (NCI-H522) | GI50 (OVCAR-3) | GI50 (OVCAR-5) | GI50 (SF-268) | GI50 (SK-MEL-2) | GI50 (SF-539)
1 | CN(C)CCCc1cccnc1 | > 100 µM (inactive) | > 100 µM (inactive) | > 100 µM (inactive) | > 100 | > 100 µM (inactive) | > 100 µM (inactive) | > 100 µM (inactive) | > 100 µM (inactive) | > 100 µM (inactive) | > 100 µM (inactive) | > 100 µM (inactive) | > 100 µM (inactive) | > 100 µM (inactive) | > 100 µM (inactive) | > 100 µM (inactive) | > 100 µM (inactive) | > 100 µM (inactive) | > 100 µM (inactive) | –
2 | O=[N+]([O-])/C=C/COCc1cc2c(cc1Br)OCO2 | 16.4 µM (inactive) | 1.15 µM (inactive) | 20.1 µM (inactive) | 18 | 20.1 µM (inactive) | 23.2 µM (inactive) | 20.8 µM (inactive) | 29.8 µM (inactive) | 19 µM (inactive) | 16.3 µM (inactive) | 13.9 µM (inactive) | 18.2 µM (inactive) | 29.9 µM (inactive) | 22 µM (inactive) | 16.4 µM (inactive) | 16.7 µM (inactive) | 19.1 µM (inactive) | – | 27.9 µM (inactive)
3 | C=CCOC1=C(OC(C)=O)C(=O)OC1C1COC(C)(C)O1 (configuration not stated) | 21.6 µM (inactive) | 21.4 µM (inactive) | 27.5 µM (inactive) | 19.5 | 29.4 µM (inactive) | – | 30.1 µM (inactive) | 37.9 µM (inactive) | 34.2 µM (inactive) | 36 µM (inactive) | 34.3 µM (inactive) | 30.1 µM (inactive) | > 62.5 µM (inactive) | 17.5 µM (inactive) | 17.5 µM (inactive) | 60 µM (inactive) | 48.4 µM (inactive) | > 52.6 µM (inactive) | 37.1 µM (inactive)
4 | CNC(=O)OCc1cnc([N+](=O)[O-])n1C | > 100 µM (inactive) | > 100 µM (inactive) | > 100 µM (inactive) | > 100 | > 100 µM (inactive) | > 100 µM (inactive) | > 100 µM (inactive) | > 100 µM (inactive) | > 100 µM (inactive) | – | > 100 µM (inactive) | > 100 µM (inactive) | > 100 µM (inactive) | > 100 µM (inactive) | > 100 µM (inactive) | > 100 µM (inactive) | > 100 µM (inactive) | > 100 µM (inactive) | > 100 µM (inactive)
5 | O=C1Nc2cc(Cl)ccc2C(=O)N2CCC[C@@H]12 | > 100 µM (inactive) | > 100 µM (inactive) | > 100 µM (inactive) | > 100 | > 100 µM (inactive) | > 100 µM (inactive) | > 100 µM (inactive) | > 100 µM (inactive) | > 100 µM (inactive) | > 100 µM (inactive) | > 100 µM (inactive) | > 100 µM (inactive) | > 100 µM (inactive) | 24.9 µM (inactive) | – | > 100 µM (inactive) | > 100 µM (inactive) | > 100 µM (inactive) | –
6 | c1ccc(-c2ccc(/N=N/N3CCCC3)cc2)cc1 | > 100 µM (inactive) | > 100 µM (inactive) | > 100 µM (inactive) | > 100 | > 100 µM (inactive) | > 100 µM (inactive) | – | > 100 µM (inactive) | > 100 µM (inactive) | > 100 µM (inactive) | > 100 µM (inactive) | > 100 µM (inactive) | > 100 µM (inactive) | > 100 µM (inactive) | > 100 µM (inactive) | > 100 µM (inactive) | > 100 µM (inactive) | > 100 µM (inactive) | > 100 µM (inactive)
7 | N#CC1=C(N)OC(c2cccc([N+](=O)[O-])c2)C1(C#N)C#N (configuration not stated) | 18.2 µM (inactive) | – | 22.1 µM (inactive) | 18.7 | 18.9 µM (inactive) | 16.8 µM (inactive) | 19.1 µM (inactive) | 17.6 µM (inactive) | > 10 µM (inactive) | 25.8 µM (inactive) | 23.3 µM (inactive) | 23.9 µM (inactive) | – | 14.2 µM (inactive) | – | 20.6 µM (inactive) | 26.5 µM (inactive) | 21.3 µM (inactive) | 21.8 µM (inactive)
8 | NNC(=O)CC(=O)Nc1ccc(C(=O)O)cc1 | > 100 µM (inactive) | > 100 µM (inactive) | > 100 µM (inactive) | > 100 | > 100 µM (inactive) | > 100 µM (inactive) | > 100 µM (inactive) | > 100 µM (inactive) | > 100 µM (inactive) | – | > 100 µM (inactive) | > 100 µM (inactive) | > 100 µM (inactive) | > 100 µM (inactive) | > 100 µM (inactive) | > 100 µM (inactive) | > 100 µM (inactive) | > 100 µM (inactive) | > 100 µM (inactive)
9 | COC(=O)CN(CC(=O)NCCNC(=O)OC(C)(C)C)C1CCCCC1N(CC(=O)OC)CC(=O)OC (configuration not stated) | > 100 µM (inactive) | > 100 µM (inactive) | > 100 µM (inactive) | > 100 | > 100 µM (inactive) | – | > 100 µM (inactive) | > 100 µM (inactive) | > 100 µM (inactive) | – | > 100 µM (inactive) | > 100 µM (inactive) | > 100 µM (inactive) | > 100 µM (inactive) | > 100 µM (inactive) | > 100 µM (inactive) | > 100 µM (inactive) | > 100 µM (inactive) | > 100 µM (inactive)
10 | O=C1/C(=C/c2ccco2)N=C2Sc3c([nH]cnc3=O)N12 | > 100 µM (inactive) | > 100 µM (inactive) | > 100 µM (inactive) | > 100 | > 100 µM (inactive) | > 100 µM (inactive) | > 100 µM (inactive) | > 100 µM (inactive) | > 100 µM (inactive) | > 100 µM (inactive) | > 100 µM (inactive) | > 100 µM (inactive) | – | > 100 µM (inactive) | > 100 µM (inactive) | > 100 µM (inactive) | > 100 µM (inactive) | > 100 µM (inactive) | > 100 µM (inactive)
11 | CNN1C(=O)c2c(N)c(C#N)c(-c3ccccc3)c(-c3ccccc3)c2C1=O | > 100 µM (inactive) | 41.1 µM (inactive) | > 100 µM (inactive) | > 100 | – | > 100 µM (inactive) | – | 48.9 µM (inactive) | 86.9 µM (inactive) | > 100 µM (inactive) | > 100 µM (inactive) | > 100 µM (inactive) | 71.6 µM (inactive) | 84.1 µM (inactive) | 34.6 µM (inactive) | 30.3 µM (inactive) | > 100 µM (inactive) | > 100 µM (inactive) | 57.7 µM (inactive)
12 | CCOc1ccc(N/C(=C(/C(Cl)=C(/Cl)N2CCCCC2)[N+](=O)[O-])n2nnc3ccccc32)cc1 | 16.2 µM (inactive) | – | 19.3 µM (inactive) | 11.1 | 21.4 µM (inactive) | 18.2 µM (inactive) | – | – | 14.2 µM (inactive) | 14.9 µM (inactive) | 8.49 µM (inactive) | 16.3 µM (inactive) | 22.2 µM (inactive) | 6.31 µM (inactive) | 17.4 µM (inactive) | 16.7 µM (inactive) | 17.4 µM (inactive) | 16.7 µM (inactive) | 16.4 µM (inactive)
13 | COc1ccccc1N1C(=O)/C(=C\c2cc(OC)c(OC)c(OC)c2)S(=O)(=O)C1c1ccccc1 (configuration not stated) | 41.2 µM (inactive) | 15.6 µM (inactive) | – | 29.5 | 37.7 µM (inactive) | 33.3 µM (inactive) | – | – | 28.6 µM (inactive) | 31 µM (inactive) | 16 µM (inactive) | 18.4 µM (inactive) | 61.1 µM (inactive) | 17 µM (inactive) | 18.2 µM (inactive) | – | 44.4 µM (inactive) | 26.9 µM (inactive) | 25.5 µM (inactive)
14 | CC(=O)/N=C1/N(/C=C2\C(=O)Oc3ccccc3C2=O)C(=O)/C(=C/c2ccccc2Cl)N1C | > 100 µM (inactive) | > 100 µM (inactive) | 84.9 µM (inactive) | 52.6 | > 100 µM (inactive) | – | > 100 µM (inactive) | > 100 µM (inactive) | > 100 µM (inactive) | > 100 µM (inactive) | > 100 µM (inactive) | > 100 µM (inactive) | > 100 µM (inactive) | > 100 µM (inactive) | – | > 100 µM (inactive) | 73.8 µM (inactive) | > 100 µM (inactive) | > 100 µM (inactive)
15 | C1CCC(CC2CCC(NC3=NCCO3)CC2)CC1 (configuration not stated) | 19.5 µM (inactive) | 26.1 µM (inactive) | 22.1 µM (inactive) | 12.3 | 20.6 µM (inactive) | – | 3.93 µM (inactive) | 19.7 µM (inactive) | 18.3 µM (inactive) | 18.9 µM (inactive) | 17.4 µM (inactive) | 20.3 µM (inactive) | 20.2 µM (inactive) | 22.2 µM (inactive) | 15.4 µM (inactive) | 23.6 µM (inactive) | 26 µM (inactive) | 18.4 µM (inactive) | 16.8 µM (inactive)
16 | Cc1ccc(N(Cc2ccccc2)Cc2ccccc2)cc1 | > 100 µM (inactive) | 28 µM (inactive) | 35.8 µM (inactive) | 40.9 | 26.7 µM (inactive) | – | 29.9 µM (inactive) | 23.7 µM (inactive) | 29.5 µM (inactive) | 55.2 µM (inactive) | 37.2 µM (inactive) | 33.8 µM (inactive) | > 100 µM (inactive) | 22 µM (inactive) | 32.8 µM (inactive) | > 100 µM (inactive) | 50.1 µM (inactive) | 24.3 µM (inactive) | > 100 µM (inactive)
